# Several values for one entry are separate records, joined by “and”; a condition that tells them apart may be missing. Identical values can stand only once. Entries after “also recorded” stand apart in the source; their conditions may differ.
# Assays:
# [1] = tested on: coxsackie B group virus B3 type Nancy strains (CVB3); assay: Serum neutralizing antibody in CVB3-infected mice; format: in vivo, Balb/c male mice; details: oral treatment; concentration-response relationship by 7 days
# Method: (§1) The thin Leaf inula flower lactone A compound from Example 1 was used; a viral strain: coxsackie B group virus B3 type Nancy strains (CVB3) was used at a virus infection dose of 10LD50 virus 0.2 ml through abdominal cavity infection in mice. The animals used were Balb/c male mice, 13 g to 15 g, from Shanghai West S&P-Bick Experimental Animals Co., Ltd. with animal number: qualified SCXX (Shanghai), 2008-0016. The positive control medicine was human recombinant interferon alpha 2 a, YinTeFen, Shenyang Junior Pharmaceutical co., Ltd., Product batch number 20090708.
# (§2) Preparation and administration: the line leaf inula flower lactone A compound was weighed, ground, and suspended in 0.5% CMC (carboxymethyl cellulose) mixture at 10 mg/ml solution. Oral administration of the medicine was conducted for once per day, every time at 0.5 ml, for 7 days.
# (§3) The experimental groups included (1) the viral infection group, each group had 10 mice, were given 0.5% CMC solution and virus.
# Another group of 10 mice, with infection, was weighed after 7 days. Four mice were taken to detect cardiac function, and killed and dissected for collecting blood to test neutralizing antibody, heart weighing calculation index, and grinding the heart, with three resistance MEM fluid containing 10%. […]
# [2] = tested on: coxsackie B group virus B3 type Nancy strains (CVB3); assay: Life protection (survival time) of mice infected by CVB3; format: in vivo, Balb/c male mice; details: for Survival time M: CVB3-infected mice, observed 14 days; for prolonged survival time, extended percentage: vs virus control
# Method: as §1, §2, §3
# Test process was that after virus infection in mice (except the normal control group) for 2 hours, total drug delivery was performed 7 days in a row, observation was conducted until 14 days. The incidence and deaths were recorded every day, and the average survival days prolongation of life were calculated with p value calculation.
# CVB3-Infected Mice = assay: Live body weight in CVB3-infected mice; format: in vivo, Balb/c male mice
# Method: as §1, §2, §3
# (§4) Another group of 10 mice, with infection, was weighed after 7 days. Four mice were taken to detect cardiac function, and killed and dissected for collecting blood to test neutralizing antibody, heart weighing calculation index, and grinding the heart, with three resistance MEM fluid containing 10%. 1:10 dilution, on the cell model to detect coxsackie virus in mice drop degree (to observe the myocardial cell lesions) separation of virus infection.
# [3] = tested on: coxsackie B group virus B3 type Nancy strains (CVB3); assay: CVB3-infected mice myocardial virus measured on cell model at 7th day (heart homogenate 1:10, cell lesions); format: in vivo, Balb/c male mice; details: for 1:10 (cell lesions from myocardial homogenate) / Lesions rate % / Average disease rate % / Reduce lesions: 7th day; for 1:10 (cell lesions from myocardial homogenate) / Lesions rate %: individual mice NO 1-5, listed as leaves Inula flowers lactone A; for Average disease rate %: virus control 90%; for Reduce lesions: vs virus control
# Method: as §1, §2, §3, §4
# mouse EAM model = assay: Mouse experimental autoimmune myocarditis (EAM) model: HW/BW, cardiac morphology, HE pathology; format: in vivo, mice
# Method: (§5) Pig myocardial myosin (PCM, 1 mg/ml; Sigma, St. Louis, Mo.) (Sigma), and equal volume of Freund's Complete Adjuvant (FCA, Sigma St. Louis, Mo.), were in an uniform emulsification and mixed into a homogeneous emulsion, where the mycobacterium tuberculosis H37Ra bead (Difco, Detroit, Mich.) with final concentration at 5 mg/ml. In the 0th day, the emulsion 0.2 ml (including antigen 200 μg) was taken and subcutaneously administered at the bilateral inguinal and multiple points under the armpit in mice. Seven days after the first immunization, the same procedure was performed to strengthen the immune once. The animals were divided into groups, each group had six mice.
# (§6) Beginning on the day of immunity, the mice were given line leaf inula flower lactone A continuously for 21 days. Two dosing methods were applied:
# (§7) (1) intraperitoneal injection: Line leaf inula flower lactone A of Example 1 was dissolved in phosphate buffer solution (PBS) (containing 5% DMSO (dimethyl sulfoxide)). The 4 concentration gradients were at 2.5 mg/kg/d^−1 (2.5 mg/kg every time, once a day); 5 mg/kg/d^−1; 10 mg/kg/d^−1; and 20 mg/kg/d^−1.
# (2) Intragastric Administration: Line leaf inula flower lactone A suspended in 0.5% CMC-Na (carboxymethyl cellulose sodium). The 3 concentration gradients were at: 10 mg/kg/d^−1; 50 mg/kg/d^−1; and 100 mg/kg/d^−1.
# (§8) Mice after 21 days were killed by taking off the neck, shearing heart, weighing and take photos, pathological section (HE hematoxylin-eosin staining), cytokine TNF-α change.
# (1) heart and body weight ratio (HW/BW). Myocarditis in mice after the onset of the myocarditis should have the heart weight/body weight ratio larger than the model group, if the medication was effective, the ratio should be small and close to the normal group.
# (2) Cardiac morphology. After the onset of the EAM in mice, the heart appeared swelling and pale as the result of the infiltration by inflammatory cells. Intraperitoneal injection of the line leaf inula flower lactone A (XX-3) were given at various dosages.
# (4) pathology (conventional HE staining). Mice were killed by taking off the neck, heart was taken out, and residual blood was removed. Each heart was fixed in 10% formaldehyde, paraffin embedded, continuous sliced with conventional HE staining and observed under the microscope. The model group had visible focal myocardial cell degeneration necrosis, cytoplasm red dye, nuclear disappeared, with some muscle dissolved, interstitial broadening, and various inflammatory cell infiltration.
# TNF-α = assay: Serum TNF-α in the mouse EAM model; format: in vivo, mice
# Method: as §5, §6, §7, §8
# (3) TNF-α change. TNF-α was an inflammation factor that played an important role in the onset of the EAM. […]
compound,measurement,setting,value
C=C1C(=O)O[C@H]2C[C@@H](C)[C@@H]3[C@@H](OC(C)=O)C[C@H](O)[C@@]3(C)[C@@H](OC(C)=O)[C@H]12 [line leaf inula flower lactone A],effect on neutralizing antibodies in the CVB3-infected mice,[1],improved the neutralizing antibodies
same,Survival time M,[2]; 10 mg/kg oral once per day for 7 days,8.9 days
same,"prolonged survival time, extended percentage",[2]; 10 mg/kg oral,21.92%
same,Survival time M,[2]; 50 mg/kg oral once per day for 7 days,9 days
same,"prolonged survival time, extended percentage",[2]; 50 mg/kg oral,23.29%
same,Survival time M,[2]; 100 mg/kg oral once per day for 7 days,9.4 days
same,"prolonged survival time, extended percentage",[2]; 100 mg/kg oral,28.77%
same,activity against coxsackie virus,"[2]; summary statement, concentration-response correlation",has activity against coxsackie virus
same,Live body weight M ± SD,"CVB3-Infected Mice; 10 mg/Kg, 4 days",15.23 ± 1.01
same,Live body weight M ± SD,"CVB3-Infected Mice; 10 mg/Kg, 8 days",15.59 ± 0.89
same,Live body weight M ± SD,"CVB3-Infected Mice; 10 mg/Kg, 14 days",17.92 ± 1.10
same,Live body weight M ± SD,"CVB3-Infected Mice; 10 mg/Kg, Before",14.59 ± 0.71
same,Live body weight M ± SD,"CVB3-Infected Mice; 50 mg/Kg, 4 days",15.14 ± 0.68
same,Live body weight M ± SD,"CVB3-Infected Mice; 50 mg/Kg, 8 days",16.03 ± 0.96
same,Live body weight M ± SD,"CVB3-Infected Mice; 50 mg/Kg, 14 days",18.33 ± 0.80
same,Live body weight M ± SD,"CVB3-Infected Mice; 50 mg/Kg, Before",14.58 ± 0.49
same,Live body weight M ± SD,"CVB3-Infected Mice; 100 mg/Kg, 4 days",15.13 ± 0.88
same,Live body weight M ± SD,"CVB3-Infected Mice; 100 mg/Kg, 8 days",16.1 ± 1.05
same,Live body weight M ± SD,"CVB3-Infected Mice; 100 mg/Kg, 14 days",18.21 ± 0.86
same,Live body weight M ± SD,"CVB3-Infected Mice; 100 mg/Kg, Before",14.57 ± 0.55
same,1:10 (cell lesions from myocardial homogenate),[3]; 10 mg/kg oral,+ (: + 50%); also recorded: ++ (++ 100%)
same,Lesions rate %,[3]; 10 mg/kg oral,50% (4×) and 100%
same,Average disease rate %,[3]; 10 mg/kg oral,60%
same,Reduce lesions,[3]; 10 mg/kg oral,33.33%
same,1:10 (cell lesions from myocardial homogenate),[3]; 50 mg/kg oral,± (plus or minus: 0%); also recorded: + (: + 50%); also recorded: ++ (++ 100%)
same,Lesions rate %,[3]; 50 mg/kg oral,25% and 50% (3×) and 100%
same,Average disease rate %,[3]; 50 mg/kg oral,55%
same,Reduce lesions,[3]; 50 mg/kg oral,38.89%
same,1:10 (cell lesions from myocardial homogenate),[3]; 100 mg/kg oral,± (plus or minus: 0%); also recorded: + (: + 50%)
same,Lesions rate %,[3]; 100 mg/kg oral,25% (2×) and 50% (3×)
same,Average disease rate %,[3]; 100 mg/kg oral,40%
same,Reduce lesions,[3]; 100 mg/kg oral,55.56%
same,effect on the coxsackie virus replication in the myocardial,"[3]; CVB3-infected mice, oral treatment",inhibitory effect
same,curative effect on EAM in mice,mouse EAM model; 100 mg/kg/d intragastric administration,has certain curative effect
same,"pathology (HE staining), efficacy",mouse EAM model; intragastric administration at 100 mg/kg·d^−1,worked the best
same,"Cardiac morphology, effect on the EAM model","mouse EAM model; intragastric administration, 21 days, FIG. 3",has curative effect on the EAM model
same,"Cardiac morphology, efficacy","mouse EAM model; intraperitoneal injection 20 mg/kg/d^−1, 21 days",worked the best efficacy
same,heart and body weight ratio (HW/BW),"mouse EAM model; intraperitoneal injection 20 mg/kg/d^−1, 21 days, FIG. 1",changed HW/BW significantly
same,"pathology (HE staining), efficacy",mouse EAM model; intraperitoneal injection at 20 mg/kg·d^−1,worked the best
same,occurrence of the EAM in mice,mouse EAM model; intraperitoneal injection of 20 mg/kg/d,prevents the occurrence of the EAM in mice
same,most effective dose (cardiac morphology),"mouse EAM model; intraperitoneal injection, 21 days",20 mg/kg/d^−1
same,"Cardiac morphology, degree and extent of the lesion vs model and solvent control groups","mouse EAM model; intraperitoneal injection, various dosages (2.5-20 mg/kg/d^−1), 21 days, FIG. 2",various degrees of improvement
same,"pathology (HE staining), myocardial inflammation","mouse EAM model; various dosages, vs model and solvent control groups, FIG. 5",had curative effect on myocardial inflammation in mice
same,levels of serum TNF-α vs model group,"TNF-α; intraperitoneal injection 20 mg/kg, 21 days, #P<0.05",the difference was significant
same,levels of serum TNF-α vs model group,"TNF-α; intraperitoneal injection, 21 days after first immunization, FIG. 4",decreased

# Source: patent publication US9303006B2, “Line leaf inula flower lactone A and methods for preparing and using the same for treating myocarditis” (SHANXI ZHENDONG PILOT BIOLOGICAL SCIENCE AND TECHNOLOGY …, priority 2012, dated 2016)
